# Molecular target: skeletal myofibrils (myosin ATPase)
# Test: Skeletal Myofibril ATPase Assay
# Format: biochemical
# Conditions: Table 4C
# How it was run: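 Skeletal myofibril ATPase activity was measured via PK-LDH coupling, following NADH loss at 340 nm every 1.5-2 min for 45 min in PIPES/CaCl2/EGTA pCa buffer, pH 7.0. Max−Min slopes were normalised to 1% DMSO vehicle (100%) and fit to a four-parameter logistic (bottom ≥0) for IC50.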
row,IC50,Structure (SMILES)
1,< 10 µM,"COc1ccc(-c2ccc(=O)n(CC(=O)NCCc3ccccc3)n2)c(F)c1 [IIIb-9, 2-(3-(2-fluoro-4-methoxyphenyl)-6-oxopyridazin-1(6H)-yl)-N-phenethylacetamide]"
2,< 10 µM,"COc1ccc(-c2ccc(=O)n(CC(=O)Nc3cc(Cl)ccc3Cl)n2)cc1 [IIIb-10, N-(2,5-dichlorophenyl)-2-(3-(4-methoxyphenyl)-6-oxopyridazin-1(6H)-yl)acetamide]"
3,< 10 µM,"COc1ccc(-c2ccc(=O)n(CC(=O)Nc3ccc(Cl)cc3Cl)n2)cc1 [IIIb-11, N-(2,4-dichlorophenyl)-2-(3-(4-methoxyphenyl)-6-oxopyridazin-1(6H)-yl)acetamide]"
4,< 10 µM,"COc1ccc(-c2ccc(=O)n(CC(=O)Nc3cc(Cl)ccc3Cl)n2)c(F)c1 [IIIb-13, N-(2,5-dichlorophenyl)-2-(3-(2-fluoro-4-methoxyphenyl)-6-oxopyridazin-1(6H)-yl)acetamide]"
5,< 10 µM,"COc1ccc(-c2ccc(=O)n(CC(=O)NCCC3=CCCCC3)n2)cc1 [IIIb-14, N-(2-(cyclohex-1-en-1-yl)ethyl)-2-(3-(4-methoxyphenyl)-6-oxopyridazin-1(6H)-yl)acetamide]"
6,< 10 µM,"COc1ccc(-c2ccc(=O)n(CC(=O)Nc3ccc4c(c3)OCCO4)n2)c(F)c1 [IIIb-15, N-(2,3-dihydrobenzo[b][1,4]dioxin-6-yl)-2-(3-(2-fluoro-4-methoxyphenyl)-6-oxopyridazin-1(6H)-yl)acetamide]"
7,< 10 µM,"COc1ccc(-c2ccc(=O)n(CC(=O)Nc3ccc4c(c3)OCCO4)n2)cc1 [IIIb-16, N-(2,3-dihydrobenzo[b][1,4]dioxin-6-yl)-2-(3-(4-methoxyphenyl)-6-oxopyridazin-1(6H)-yl)acetamide]"
8,10 to 100 µM,"COc1ccc(-c2ccc(=O)n(CC(=O)NC(C)C)n2)cc1 [IIIb-18, N-isopropyl-2-(3-(4-methoxyphenyl)-6-oxopyridazin-1(6H)-yl)acetamide]"
9,10 to 100 µM,"COc1ccc(-c2ccc(=O)n(CC(=O)NC(C)C)n2)c(F)c1 [IIIb-19, 2-(3-(2-fluoro-4-methoxyphenyl)-6-oxopyridazin-1(6H)-yl)-N-isopropylacetamide]"
10,10 to 100 µM,"COc1ccc(-c2ccc(=O)n(CC(=O)NCc3ccccc3)n2)cc1 [IIIb-20, N-benzyl-2-(3-(4-methoxyphenyl)-6-oxopyridazin-1(6H)-yl)acetamide]"
11,10 to 100 µM,COc1ccc(-c2ccc(=O)n(CC(=O)NCc3ccccc3OC)n2)cc1 [IIIb-21]
12,10 to 100 µM,"COc1ccc(-c2ccc(=O)n(CC(=O)NC3CC3)n2)cc1 [IIIb-22, N-cyclopropyl-2-(3-(4-methoxyphenyl)-6-oxopyridazin-1(6H)-yl)acetamide]"
13,10 to 100 µM,"COc1ccc(-c2ccc(=O)n(CC(=O)NC3CCCC3)n2)cc1 [IIIb-23, N-cyclopentyl-2-(3-(4-methoxyphenyl)-6-oxopyridazin-1(6H)-yl)acetamide]"
14,10 to 100 µM,"O=C(Cn1nc(-c2ccc3c(c2)OCCCO3)ccc1=O)NC1CCCCCC1 [IIIb-24, N-cycloheptyl-2-(3-(3,4-dihydro-2H-benzo[b][1,4]dioxepin-7-yl)-6-oxopyridazin-1(6H)-yl)acetamide]"
15,10 to 100 µM,"COc1ccc(-c2ccc(=O)n(CC(=O)Nc3cc(OC)ccc3OC)n2)cc1 [IIIb-25, N-(2,5-dimethoxyphenyl)-2-(3-(4-methoxyphenyl)-6-oxopyridazin-1(6H)-yl)acetamide]"
16,10 to 100 µM,"C[C@@H](NC(=O)Cn1nc(-c2ccc3c(c2)OCCCO3)ccc1=O)c1ccc(F)cc1 [IIIb-26, (R)-2-(3-(3,4-dihydro-2H-benzo[b][1,4]dioxepin-7-yl)-6-oxopyridazin-1(6H)-yl)-N-(1-(4-fluorophenyl)ethyl)acetamide]"
17,10 to 100 µM,"COc1ccc(-c2ccc(=O)n(CC(=O)Nc3ncccc3C)n2)cc1 [IIIb-27, 2-(3-(4-methoxyphenyl)-6-oxopyridazin-1(6H)-yl)-N-(3-methylpyridin-2-yl)acetamide]"
18,10 to 100 µM,"COc1ccc(-c2ccc(=O)n(CC(=O)Nc3ccc4c(c3)OCO4)n2)cc1 [IIIb-28, N-(benzo[d][1,3]dioxol-5-yl)-2-(3-(4-methoxyphenyl)-6-oxopyridazin-1(6H)-yl)acetamide]"
19,10 to 100 µM,"COc1ccc(-c2ccc(=O)n(CC(=O)NCC(C)C)n2)cc1 [IIIb-29, N-isobutyl-2-(3-(4-methoxyphenyl)-6-oxopyridazin-1(6H)-yl)acetamide]"
20,10 to 100 µM,"COc1ccc(-c2ccc(=O)n(CC(=O)NC(C)CCc3ccccc3)n2)cc1 (stereo not shown) [IIIb-30, 2-(3-(4-methoxyphenyl)-6-oxopyridazin-1(6H)-yl)-N-(4-phenylbutan-2-yl)acetamide]"
21,10 to 100 µM,"COc1ccc(-c2ccc(=O)n(CC(=O)NCc3ccc(Cl)cc3)n2)cc1 [IIIb-31, N-(4-chlorobenzyl)-2-(3-(4-methoxyphenyl)-6-oxopyridazin-1(6H)-yl)acetamide]"
22,10 to 100 µM,"COc1ccc(-c2ccc(=O)n(CC(=O)NCc3cccc(F)c3)n2)cc1 [IIIb-32, N-(3-fluorobenzyl)-2-(3-(4-methoxyphenyl)-6-oxopyridazin-1(6H)-yl)acetamide]"

row,IC50,Structure (SMILES)
1,10 to 100 µM,"COc1ccc(-c2ccc(=O)n(CC(=O)Nc3ccc4c(c3)OCO4)n2)c(F)c1 [IIIb-33, N-(benzo[d][1,3]dioxol-5-yl)-2-(3-(2-fluoro-4-methoxyphenyl)-6-oxopyridazin-1(6H)-yl)acetamide]"
2,10 to 100 µM,"COc1ccc(CNC(=O)Cn2nc(-c3ccc(OC)cc3)ccc2=O)cc1 [IIIb-34, N-(4-methoxybenzyl)-2-(3-(4-methoxyphenyl)-6-oxopyridazin-1(6H)-yl)acetamide]"
3,10 to 100 µM,"COc1ccc(-c2ccc(=O)n(CC(=O)Nc3ccc(Cl)cc3Cl)n2)c(F)c1 [IIIb-35, N-(2,4-dichlorophenyl)-2-(3-(2-fluoro-4-methoxyphenyl)-6-oxopyridazin-1(6H)-yl)acetamide]"
4,10 to 100 µM,"COc1ccc(-c2ccc(=O)n(CC(=O)NC(C)CCc3ccccc3)n2)c(F)c1 (stereo not shown) [IIIb-36, 2-(3-(2-fluoro-4-methoxyphenyl)-6-oxopyridazin-1(6H)-yl)-N-(4-phenylbutan-2-yl)acetamide]"
5,10 to 100 µM,"COc1ccc(-c2ccc(=O)n(CC(=O)NCc3ccco3)n2)cc1 [IIIb-37, N-(furan-2-ylmethyl)-2-(3-(4-methoxyphenyl)-6-oxopyridazin-1(6H)-yl)acetamide]"
6,> 100 µM,"COc1ccc(-c2ccc(=O)n(CC(=O)NCc3ccccc3F)n2)cc1 [IIIb-38, N-(2-fluorobenzyl)-2-(3-(4-methoxyphenyl)-6-oxopyridazin-1(6H)-yl)acetamide]"
7,> 100 µM,"COc1ccc(-c2ccc(=O)n(CC(=O)NC[C@@H]3CC4C=CC3C4)n2)cc1 (stereo partly drawn) [IIIb-39, N-(((2R)-bicyclo[2.2.1]hept-5-en-2-yl)methyl)-2-(3-(4-methoxyphenyl)-6-oxopyridazin-1(6H)-yl)acetamide]"
8,> 100 µM,"COc1ccc(-c2ccc(=O)n(CC(=O)NCc3ccccc3Cl)n2)cc1OC [IIIb-40, N-(2-chlorobenzyl)-2-(3-(3,4-dimethoxyphenyl)-6-oxopyridazin-1(6H)-yl)acetamide]"
9,> 100 µM,"COc1ccc(-c2ccc(=O)n(CC(=O)NC3CCCCC3)n2)cc1 [IIIb-41, N-cyclohexyl-2-(3-(4-methoxyphenyl)-6-oxopyridazin-1(6H)-yl)acetamide]"
10,> 100 µM,"CCOc1ccc(-c2ccc(=O)n(CCNC(=O)CC3CCCC3)n2)cc1 [IIIb-43, 2-cyclopentyl-N-(2-(3-(4-ethoxyphenyl)-6-oxopyridazin-1(6H)-yl)ethyl)acetamide]"
11,> 100 µM,"CCc1ccc(-c2ccc(=O)n(CC(=O)Nc3ccc4c(c3)OCCO4)n2)cc1 [IIIb-44, N-(2,3-dihydrobenzo[b][1,4]dioxin-6-yl)-2-(3-(4-ethylphenyl)-6-oxopyridazin-1(6H)-yl)acetamide]"
12,> 100 µM,"COc1ccc(-c2ccc(=O)n(CC(=O)NC3CCCC3)n2)cc1OC [IIIb-45, N-cyclopentyl-2-(3-(3,4-dimethoxyphenyl)-6-oxopyridazin-1(6H)-yl)acetamide]"
13,> 100 µM,"COc1ccc(-c2ccc(=O)n(CC(=O)NCc3ccc(F)cc3)n2)c(F)c1 [IIIb-46, 2-(3-(2-fluoro-4-methoxyphenyl)-6-oxopyridazin-1(6H)-yl)-N-(4-fluorobenzyl)acetamide]"
14,> 100 µM,"COCCNC(=O)Cn1nc(-c2ccc(OC)cc2)ccc1=O [IIIb-47, N-(2-methoxyethyl)-2-(3-(4-methoxyphenyl)-6-oxopyridazin-1(6H)-yl)acetamide]"
15,> 100 µM,"COc1ccc(-c2ccc(=O)n(CC(=O)NCCC(C)C)n2)cc1 [IIIb-48, N-isopentyl-2-(3-(4-methoxyphenyl)-6-oxopyridazin-1(6H)-yl)acetamide]"
16,> 100 µM,"COc1ccc(-c2ccc(=O)n(CC(=O)NCc3ccc(OC)c(OC)c3)n2)cc1 [IIIb-49, N-(3,4-dimethoxybenzyl)-2-(3-(4-methoxyphenyl)-6-oxopyridazin-1(6H)-yl)acetamide]"
17,> 100 µM,"COc1ccc(-c2ccc(=O)n(CC(=O)NCc3ccc(F)cc3)n2)cc1 [IIIb-50, N-(4-fluorobenzyl)-2-(3-(4-methoxyphenyl)-6-oxopyridazin-1(6H)-yl)acetamide]"
18,> 100 µM,"COc1ccc(-c2ccc(=O)n(CC(=O)NCCc3ccc(OC)c(OC)c3)n2)cc1 [IIIb-51, N-(3,4-dimethoxyphenethyl)-2-(3-(4-methoxyphenyl)-6-oxopyridazin-1(6H)-yl)acetamide]"
19,> 100 µM,"COc1ccc(-c2ccc(=O)n(CC(=O)Nc3cccc(Cl)c3)n2)cc1 [IIIb-52, N-(3-chlorophenyl)-2-(3-(4-methoxyphenyl)-6-oxopyridazin-1(6H)-yl)acetamide]"
20,> 100 µM,"COc1ccc(-c2ccc(=O)n(CC(=O)NCc3ccco3)n2)cc1 [IIIb-53, N-(furan-2-ylmethyl)-2-(3-(4-methoxyphenyl)-6-oxopyridazin-1(6H)-yl)acetamide]"
21,> 100 µM,"COc1ccc(-c2ccc(=O)n(CC(=O)NCc3ccccc3)n2)c(F)c1 [IIIb-54, N-benzyl-2-(3-(2-fluoro-4-methoxyphenyl)-6-oxopyridazin-1(6H)-yl)acetamide]"
